From PubChem BioAssay (NCI)
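Dose response: 5 concentrations. Exposure: 48 h. Format: 96-well plates. Endpoint: linear interpolation; highest concentration if not reached. TGI denotes the concentration required for complete inhibition of growth.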

How the values were obtained:
Assay in all cases: growth of human tumour cells (NCI), 48 h
786-0 renal = system: 786-0 renal
A498 renal = system: A498 renal
A549 NSCLC = system: A549 NSCLC
ACHN renal = system: ACHN renal
BT-549 breast = system: BT-549 breast
CAKI-1 renal = system: CAKI-1 renal
CCRF-CEM leukemia = system: CCRF-CEM leukemia
COLO 205 colon = system: COLO 205 colon
DU-145 prostate = system: DU-145 prostate
EKVX NSCLC = system: EKVX NSCLC
HCC-2998 colon = system: HCC-2998 colon
HCT-116 colon = system: HCT-116 colon
HCT-15 colon = system: HCT-15 colon
HL-60(TB) leukemia = system: HL-60(TB) leukemia
HOP-62 NSCLC = system: HOP-62 NSCLC
HOP-92 NSCLC = system: HOP-92 NSCLC
HS 578T breast = system: HS 578T breast
HT29 colon = system: HT29 colon
IGROV1 ovarian = system: IGROV1 ovarian
K-562 leukemia = system: K-562 leukemia
KM12 colon = system: KM12 colon
LOX IMVI melanoma = system: LOX IMVI melanoma
M14 melanoma = system: M14 melanoma
MALME-3M melanoma = system: MALME-3M melanoma
MCF7 breast = system: MCF7 breast
MDA-MB-231 breast = system: MDA-MB-231 breast
MDA-MB-435 = system: MDA-MB-435
MDA-N = system: MDA-N
MOLT-4 leukemia = system: MOLT-4 leukemia
NCI-H226 lung = system: NCI-H226 lung
NCI-H23 lung = system: NCI-H23 lung
NCI-H460 lung = system: NCI-H460 lung
NCI-H522 lung = system: NCI-H522 lung
NCI/ADR-RES ovarian = system: NCI/ADR-RES ovarian
OVCAR-3 ovarian = system: OVCAR-3 ovarian
OVCAR-4 ovarian = system: OVCAR-4 ovarian
OVCAR-5 ovarian = system: OVCAR-5 ovarian
OVCAR-8 ovarian = system: OVCAR-8 ovarian
PC-3 prostate = system: PC-3 prostate
RPMI-8226 leukemia = system: RPMI-8226 leukemia
RXF 393 renal = system: RXF 393 renal
SF-268 CNS = system: SF-268 CNS
SF-295 CNS = system: SF-295 CNS
SF-539 CNS = system: SF-539 CNS
SK-MEL-2 melanoma = system: SK-MEL-2 melanoma
SK-MEL-28 melanoma = system: SK-MEL-28 melanoma
SK-MEL-5 melanoma = system: SK-MEL-5 melanoma
SK-OV-3 ovarian = system: SK-OV-3 ovarian
SN12C renal = system: SN12C renal
SNB-19 CNS = system: SNB-19 CNS
SNB-75 CNS = system: SNB-75 CNS
SR leukemia = system: SR leukemia
SW-620 colon = system: SW-620 colon
T-47D breast = system: T-47D breast
TK-10 renal = system: TK-10 renal
U251 CNS = system: U251 CNS
UACC-257 melanoma = system: UACC-257 melanoma
UACC-62 melanoma = system: UACC-62 melanoma
UO-31 renal = system: UO-31 renal

For `Cc1ccc(NC(=O)c2cccc(OP(=O)(O)Nc3ccc(C)cc3)c2)cc1`, the TGI (786-0 renal) was greater than 100 µM, the TGI (A498 renal) was greater than 100 µM and the TGI (A549 NSCLC) was greater than 100 µM. For the same molecule, the TGI (ACHN renal) was greater than 100 µM, the TGI (BT-549 breast) was greater than 100 µM and the TGI (CAKI-1 renal) was greater than 100 µM. For the same molecule, the TGI (CCRF-CEM leukemia) was greater than 100 µM, the TGI (COLO 205 colon) was greater than 100 µM and the TGI (DU-145 prostate) was greater than 100 µM. It also gave a TGI (EKVX NSCLC) greater than 100 µM, a TGI (HCC-2998 colon) greater than 100 µM and a TGI (HCT-116 colon) greater than 100 µM. For the same molecule, the TGI (HCT-15 colon) was greater than 100 µM, the TGI (HL-60(TB) leukemia) was greater than 100 µM and the TGI (HOP-62 NSCLC) was greater than 100 µM. It also gave a TGI (HOP-92 NSCLC) greater than 100 µM, a TGI (HS 578T breast) greater than 100 µM and a TGI (HT29 colon) greater than 100 µM. The TGI (IGROV1 ovarian) was greater than 100 µM, the TGI (K-562 leukemia) was greater than 100 µM and the TGI (KM12 colon) was greater than 100 µM. For the same molecule, the TGI (LOX IMVI melanoma) was greater than 100 µM, the TGI (M14 melanoma) was greater than 100 µM and the TGI (MALME-3M melanoma) was greater than 100 µM. It also gave a TGI (MCF7 breast) greater than 100 µM, a TGI (MDA-MB-231 breast) greater than 100 µM and a TGI (MDA-MB-435) greater than 100 µM. For the same molecule, the TGI (MDA-N) was greater than 100 µM, the TGI (MOLT-4 leukemia) was greater than 100 µM and the TGI (NCI-H226 lung) was greater than 100 µM. For the same molecule, the TGI (NCI-H23 lung) was greater than 100 µM, the TGI (NCI-H460 lung) was greater than 100 µM and the TGI (NCI-H522 lung) was greater than 100 µM. For the same molecule, the TGI (NCI/ADR-RES ovarian) was greater than 100 µM, the TGI (OVCAR-3 ovarian) was greater than 100 µM and the TGI (OVCAR-4 ovarian) was greater than 100 µM. It also gave a TGI (OVCAR-5 ovarian) greater than 100 µM, a TGI (OVCAR-8 ovarian) greater than 100 µM and a TGI (PC-3 prostate) greater than 100 µM. For the same molecule, the TGI (RPMI-8226 leukemia) was greater than 100 µM, the TGI (RXF 393 renal) was greater than 100 µM and the TGI (SF-268 CNS) was greater than 100 µM. For the same molecule, the TGI (SF-295 CNS) was greater than 100 µM, the TGI (SF-539 CNS) was greater than 100 µM and the TGI (SK-MEL-2 melanoma) was greater than 100 µM. The TGI (SK-MEL-28 melanoma) was greater than 100 µM, the TGI (SK-MEL-5 melanoma) was greater than 100 µM and the TGI (SK-OV-3 ovarian) was greater than 100 µM. For the same molecule, the TGI (SN12C renal) was greater than 100 µM, the TGI (SNB-19 CNS) was greater than 100 µM and the TGI (SNB-75 CNS) was greater than 100 µM. It also gave a TGI (SR leukemia) greater than 100 µM, a TGI (SW-620 colon) greater than 100 µM and a TGI (T-47D breast) greater than 100 µM. The TGI (TK-10 renal) was greater than 100 µM, the TGI (U251 CNS) was greater than 100 µM and the TGI (UACC-257 melanoma) was greater than 100 µM. For the same molecule, the TGI (UACC-62 melanoma) was greater than 100 µM and the TGI (UO-31 renal) was greater than 100 µM.

In the case of `COC(=O)CCc1cc(O)c2c(c1)C(C(=O)OC)C(c1ccc(O)c(O)c1)O2` (stereo not drawn), the TGI (786-0 renal) was greater than 100 µM, the TGI (A498 renal) was greater than 84.5 µM and the TGI (A549 NSCLC) was greater than 100 µM. For the same molecule, the TGI (ACHN renal) was greater than 100 µM, the TGI (BT-549 breast) was greater than 100 µM and the TGI (CAKI-1 renal) was greater than 100 µM. For the same molecule, the TGI (CCRF-CEM leukemia) was greater than 48.7 µM, the TGI (COLO 205 colon) was greater than 100 µM and the TGI (DU-145 prostate) was greater than 83 µM. The TGI (EKVX NSCLC) was greater than 100 µM, the TGI (HCC-2998 colon) was 39.8 µM and the TGI (HCT-116 colon) was greater than 100 µM. For the same molecule, the TGI (HCT-15 colon) was greater than 100 µM, the TGI (HL-60(TB) leukemia) was greater than 21.8 µM and the TGI (HOP-62 NSCLC) was greater than 100 µM. It also gave a TGI (HOP-92 NSCLC) greater than 100 µM, a TGI (HS 578T breast) greater than 95.9 µM and a TGI (HT29 colon) greater than 96.4 µM. For the same molecule, the TGI (IGROV1 ovarian) was greater than 92.5 µM, the TGI (K-562 leukemia) was 10.6 µM and the TGI (KM12 colon) was greater than 46.5 µM. For the same molecule, the TGI (LOX IMVI melanoma) was greater than 100 µM, the TGI (M14 melanoma) was greater than 100 µM and the TGI (MALME-3M melanoma) was greater than 100 µM. For the same molecule, the TGI (MCF7 breast) was greater than 100 µM, the TGI (MDA-MB-231 breast) was greater than 100 µM and the TGI (MDA-MB-435) was 4.67 µM. It also gave a TGI (MDA-N) of 13.3 µM, a TGI (MOLT-4 leukemia) greater than 88.8 µM and a TGI (NCI-H226 lung) greater than 75 µM. The TGI (NCI-H23 lung) was greater than 100 µM, the TGI (NCI-H460 lung) was greater than 62.8 µM and the TGI (NCI-H522 lung) was greater than 100 µM. It also gave a TGI (NCI/ADR-RES ovarian) greater than 100 µM, a TGI (OVCAR-3 ovarian) greater than 67.1 µM and a TGI (OVCAR-4 ovarian) greater than 100 µM. It also gave a TGI (OVCAR-5 ovarian) greater than 100 µM, a TGI (OVCAR-8 ovarian) of 65.1 µM and a TGI (PC-3 prostate) greater than 100 µM. For the same molecule, the TGI (RPMI-8226 leukemia) was greater than 92.9 µM, the TGI (RXF 393 renal) was greater than 100 µM and the TGI (SF-268 CNS) was greater than 100 µM. For the same molecule, the TGI (SF-295 CNS) was 97 µM, the TGI (SF-539 CNS) was 32.9 µM and the TGI (SK-MEL-2 melanoma) was greater than 100 µM. It also gave a TGI (SK-MEL-28 melanoma) greater than 100 µM, a TGI (SK-MEL-5 melanoma) of 20.4 µM and a TGI (SK-OV-3 ovarian) greater than 93 µM. For the same molecule, the TGI (SN12C renal) was greater than 88.7 µM, the TGI (SNB-19 CNS) was greater than 100 µM and the TGI (SNB-75 CNS) was 8.41 µM. It also gave a TGI (SR leukemia) greater than 25.5 µM, a TGI (SW-620 colon) greater than 100 µM and a TGI (T-47D breast) greater than 72.3 µM. It also gave a TGI (TK-10 renal) greater than 100 µM, a TGI (U251 CNS) greater than 95 µM and a TGI (UACC-257 melanoma) greater than 100 µM. For the same molecule, the TGI (UACC-62 melanoma) was greater than 100 µM and the TGI (UO-31 renal) was greater than 100 µM.
